Eleven compounds from patent publication US10221139B2, “Inhibitors of histone demethylases” (Gilead Sciences, Inc., priority 2012, dated 2019) can be followed below.

A word on the IC50: it is the point on the concentration scale where inhibition reaches its midpoint. Low values mean higher potency, high ones lower potency.

Holding throughout (assay type): biochemical
The target in one assay is T1, GASC1 (KDM4C, JMJD2C) (Homo sapiens, UniProt Q9H3R0).
T1 construct: 1-349; host or cells: E. coli
T1 sequence (Q9H3R0 1-349): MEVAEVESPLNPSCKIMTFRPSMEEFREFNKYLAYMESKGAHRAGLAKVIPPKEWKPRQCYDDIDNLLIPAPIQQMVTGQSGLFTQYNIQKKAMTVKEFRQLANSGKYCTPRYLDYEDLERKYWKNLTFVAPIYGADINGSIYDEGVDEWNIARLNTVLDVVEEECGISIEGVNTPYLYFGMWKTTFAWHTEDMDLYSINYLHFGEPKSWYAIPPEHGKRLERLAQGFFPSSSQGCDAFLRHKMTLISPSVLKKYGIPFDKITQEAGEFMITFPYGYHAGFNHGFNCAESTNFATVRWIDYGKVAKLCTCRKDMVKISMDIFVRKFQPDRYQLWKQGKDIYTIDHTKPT
Description: Histone lysine demethylase AlphaLISA assay, GASC1. As to conditions: substrate BK9M3. The method, then: (§1) Example 2: Histone Lysine Demethylase AlphaLISA Assays for IC50 Value Determination
(§2) Assays are performed analogously to the protocol described by Perkin Elmer (Roy et al. Perkin Elmer Technical Note: AlphaLISA #12, April 2011).
(§3) Enzymes are dissolved in enzyme buffer and incubated for 10 min before 5 μL is added to 5 μL 3% DMSO solutions of compounds in enzyme buffer. Incubated for another 10 minutes, before 5 μL substrate solution is added and the reaction mixture is incubated at room temperature for the given period. 10 μL acceptor beads, suspended at given dilutions in Epigenetic Buffer (Perkin Elmer AL008) from stock, are added and the suspension is incubated 60 minutes in the dark at room temperature, before 10 μL suspension (at the given dilutions in Epigenetic Buffer) of streptavidin donor beads (Perkin Elmer 6760002) in Epigenetic Buffer is added. After incubation at room temperature in the dark the plates are read. Reaction conditions are seen in Table 2b.
Background: In Alpha technology, singlet oxygen from a donor bead excites a nearby acceptor bead.

The target of a further assay is T2, UTX (KDM6A) (Homo sapiens, UniProt O15550).
T2 construct: 919-1401; host or cells: E. coli
As to the kind of experiment: Histone lysine demethylase AlphaLISA assay, UTX. As to conditions: substrate BK27M3. The protocol: as §1, §2, §3

The next assay addresses T3, PLU1 (KDM5B) (Homo sapiens, UniProt Q9UGL1).
T3 construct: 1-809; host or cells: E. coli
T3 sequence (Q9UGL1 1-809): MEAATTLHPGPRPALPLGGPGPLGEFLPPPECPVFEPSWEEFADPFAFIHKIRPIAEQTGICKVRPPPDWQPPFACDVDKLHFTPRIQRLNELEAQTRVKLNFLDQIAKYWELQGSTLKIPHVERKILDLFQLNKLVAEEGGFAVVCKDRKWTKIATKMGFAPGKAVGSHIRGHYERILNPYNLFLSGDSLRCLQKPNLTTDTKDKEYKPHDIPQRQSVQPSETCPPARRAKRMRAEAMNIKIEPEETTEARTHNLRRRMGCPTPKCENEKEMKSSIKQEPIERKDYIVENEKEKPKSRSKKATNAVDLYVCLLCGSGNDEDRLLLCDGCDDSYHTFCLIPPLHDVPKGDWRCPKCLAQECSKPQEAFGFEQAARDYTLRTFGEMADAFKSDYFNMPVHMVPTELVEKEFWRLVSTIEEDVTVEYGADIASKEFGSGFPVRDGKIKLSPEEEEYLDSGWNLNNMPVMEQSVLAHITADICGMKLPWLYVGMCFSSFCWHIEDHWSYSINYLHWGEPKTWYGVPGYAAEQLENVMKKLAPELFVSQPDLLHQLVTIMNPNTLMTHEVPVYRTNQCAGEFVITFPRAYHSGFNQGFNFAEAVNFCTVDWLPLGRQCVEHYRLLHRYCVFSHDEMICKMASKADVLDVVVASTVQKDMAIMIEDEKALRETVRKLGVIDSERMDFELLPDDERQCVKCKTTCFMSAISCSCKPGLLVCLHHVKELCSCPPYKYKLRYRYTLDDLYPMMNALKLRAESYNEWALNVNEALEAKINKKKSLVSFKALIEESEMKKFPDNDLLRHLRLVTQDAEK
Description: Histone lysine demethylase AlphaLISA assay, PLU1. The following applies: substrate H3K4M3B. The method, then:
as §1, §2, §3

T2 sequence (O15550 919-1401): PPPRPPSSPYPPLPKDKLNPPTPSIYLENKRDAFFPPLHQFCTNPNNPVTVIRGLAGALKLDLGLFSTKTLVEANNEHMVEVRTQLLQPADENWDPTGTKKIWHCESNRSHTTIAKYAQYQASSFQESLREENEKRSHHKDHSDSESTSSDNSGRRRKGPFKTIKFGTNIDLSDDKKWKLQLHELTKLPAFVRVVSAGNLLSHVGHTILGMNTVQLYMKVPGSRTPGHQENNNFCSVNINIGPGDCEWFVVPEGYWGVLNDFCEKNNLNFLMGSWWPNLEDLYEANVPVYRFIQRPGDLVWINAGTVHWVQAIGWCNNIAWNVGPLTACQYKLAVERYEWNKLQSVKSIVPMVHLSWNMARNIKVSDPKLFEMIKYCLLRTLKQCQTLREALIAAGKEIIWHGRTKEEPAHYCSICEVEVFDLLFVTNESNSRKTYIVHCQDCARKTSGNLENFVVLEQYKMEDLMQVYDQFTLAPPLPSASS

As for `CCN(CC)CCCCNCc1cc(C(=O)Oc2c(OC)cccc2OC)ccn1` [#56, 2,6-dimethoxyphenyl 2-({[4-(diethylamino)butyl]amino}methyl)pyridine-4-carboxylate], the IC50 was 0.1 to 1 µM against GASC1 (KDM4C, JMJD2C); not below 1 µM against UTX (KDM6A); less than 0.1 µM on PLU1 (KDM5B).

On to `CCN(CC)CCCCNCc1cc(C(=O)Oc2c(C)cccc2C)ccn1` [#57, 2,6-dimethylphenyl 2-({[4-(diethylamino)butyl]amino}methyl)pyridine-4-carboxylate], for which the IC50 is not below 1 µM against GASC1 (KDM4C, JMJD2C); not below 1 µM against UTX (KDM6A); less than 0.1 µM against PLU1 (KDM5B).

On to `CCN(CCN(C)C)C(=O)CNCc1cc(C(=O)Oc2ccc(OC)cc2)ccn1` [#58, 4-methoxyphenyl 2-{[({[2-(dimethylamino)ethyl](ethyl)carbamoyl}methyl)amino]methyl}pyridine-4-carboxylate], for which the IC50 on GASC1 (KDM4C, JMJD2C) is 0.1 to 1 µM; at UTX (KDM6A), not below 1 µM; against PLU1 (KDM5B), less than 0.1 µM.

Take `CCOC(=O)c1ccccc1OC(=O)c1ccnc(CNCC(=O)N(CC)CCN(C)C)c1` [#59, 2-(ethoxycarbonyl)phenyl 2-{[({[2-(dimethylamino)ethyl](ethyl)carbamoyl}methyl)amino]methyl}pyridine-4-carboxylate]: the IC50 on GASC1 (KDM4C, JMJD2C) was less than 0.1 µM; against UTX (KDM6A), less than 0.1 µM; at PLU1 (KDM5B), less than 0.1 µM.

Regarding `CCOC(=O)N(C)c1ccc(COC(=O)c2ccnc(CNCCCCN(CC)CC)c2)cc1` [#60, {4-[(ethoxycarbonyl)(methyl)amino]phenyl}methyl 2-({[4-(diethylamino)butyl]amino}methyl)pyridine-4-carboxylate], the IC50 on GASC1 (KDM4C, JMJD2C) was not below 1 µM; on UTX (KDM6A) it was less than 0.1 µM; against PLU1 (KDM5B), less than 0.1 µM.

For the compound `CCN(CCN(C)C)C(=O)CNCc1cc(C(=O)OC(C)CCN(C)C(=O)C(F)(F)F)ccn1` (stereo not drawn) [#64, 4-(2,2,2-trifluoro-N-methylacetamido)butan-2-yl 2-{[({[2-(dimethylamino)ethyl](ethyl)carbamoyl}methyl)amino]methyl}pyridine-4-carboxylate], the IC50 at GASC1 (KDM4C, JMJD2C) was less than 0.1 µM; on UTX (KDM6A), not below 1 µM; against PLU1 (KDM5B), 0.1 to 1 µM.

For `CCOC(=O)c1ccnc(CNCC(=O)N(CC)CCN(C)C)c1` [#65, ethyl 2-{[({[2-(dimethylamino)ethyl](ethyl)carbamoyl}methyl)amino]methyl}pyridine-4-carboxylate], the IC50 against GASC1 (KDM4C, JMJD2C) was 0.1 to 1 µM; at UTX (KDM6A), less than 0.1 µM; on PLU1 (KDM5B), 0.1 to 1 µM.

Take `C=CC(CCNC(=O)C(F)(F)F)OC(=O)c1ccnc(CNCC(=O)N(CC)CCN(C)C)c1` (stereo not drawn) [#66, 5-(trifluoroacetamido)pent-1-en-3-yl 2-{[({[2-(dimethylamino)ethyl](ethyl)carbamoyl}methyl)amino]methyl}pyridine-4-carboxylate]: the half-inhibitory concentration (IC50) on GASC1 (KDM4C, JMJD2C) was 0.1 to 1 µM; at UTX (KDM6A) it was less than 0.1 µM; at PLU1 (KDM5B), 0.1 to 1 µM.

For `C=CC(CCN(C)C(=O)C(F)(F)F)OC(=O)c1ccnc(CNCC(=O)N(CC)CCN(C)C)c1` (stereo not drawn) [#67, 5-(2,2,2-trifluoro-N-methylacetamido)pent-1-en-3-yl 2-{[({[2-(dimethylamino)ethyl](ethyl)carbamoyl}methyl)amino]methyl}pyridine-4-carboxylate], the IC50 against GASC1 (KDM4C, JMJD2C) is 0.1 to 1 µM; on UTX (KDM6A) it was less than 0.1 µM; at PLU1 (KDM5B), 0.1 to 1 µM.

Regarding `CCCCCCCCCCCCCCCC(=O)OCC(COC(=O)c1ccnc(CNCC(=O)N(CC)CCN(C)C)c1)OC(=O)CCCCCCCCCCCCCCC` (stereo not drawn) [#69, 1-(2-{[({[2-(dimethylamino)ethyl](ethyl)carbamoyl}methyl)amino]methyl}pyridine-4-carbonyloxy)-3-(hexadecanoyloxy)propan-2-yl hexadecanoate], the IC50 on GASC1 (KDM4C, JMJD2C) is 0.1 to 1 µM; against UTX (KDM6A), less than 0.1 µM; on PLU1 (KDM5B) it was 0.1 to 1 µM.

As to `CCN(CCN(C)C)C(=O)CNCc1cc(C(=O)Nc2nccn2C)ccn1` [#89, 2-{[({[2-(dimethylamino)ethyl](ethyl)carbamoyl}methyl)amino]methyl}-N-(1-methyl-1H-imidazol-2-yl)pyridine-4-carboxamide], the IC50 against GASC1 (KDM4C, JMJD2C) is 0.1 to 1 µM; against UTX (KDM6A), less than 0.1 µM; at PLU1 (KDM5B), less than 0.1 µM.
